Data reported in patent publication US20250018014A1, “METHOD FOR TREATING AND/OR PREVENTING REGNASE-1-RELATED DISEASE” (OSAKA UNIVERSITY, priority 2018, published 2025).
pIC50: −log10 of the molar value. Residues, ends and D or L forms follow the SMILES beside them.

Tests used:
Type in all cases: biochemical
[1] = target: T1, FL_Reg1 (full-length human Regnase-1) phosphorylation by TBK1 (Homo sapiens, UniProt Q5D1E8); assay: Regnase-1 phosphorylation inhibition by compounds (AlphaScreen), TBK1, full-length Regnase-1; details: Table 13; phosphorylation by TBK1; read-out: Phosphorylation inhibition FL_Reg1, 50% inhibition concentration (TBK1)
T1 construct: made in house; host or cells: Expi293 cells
T1 sequence (Q5D1E8 1-599): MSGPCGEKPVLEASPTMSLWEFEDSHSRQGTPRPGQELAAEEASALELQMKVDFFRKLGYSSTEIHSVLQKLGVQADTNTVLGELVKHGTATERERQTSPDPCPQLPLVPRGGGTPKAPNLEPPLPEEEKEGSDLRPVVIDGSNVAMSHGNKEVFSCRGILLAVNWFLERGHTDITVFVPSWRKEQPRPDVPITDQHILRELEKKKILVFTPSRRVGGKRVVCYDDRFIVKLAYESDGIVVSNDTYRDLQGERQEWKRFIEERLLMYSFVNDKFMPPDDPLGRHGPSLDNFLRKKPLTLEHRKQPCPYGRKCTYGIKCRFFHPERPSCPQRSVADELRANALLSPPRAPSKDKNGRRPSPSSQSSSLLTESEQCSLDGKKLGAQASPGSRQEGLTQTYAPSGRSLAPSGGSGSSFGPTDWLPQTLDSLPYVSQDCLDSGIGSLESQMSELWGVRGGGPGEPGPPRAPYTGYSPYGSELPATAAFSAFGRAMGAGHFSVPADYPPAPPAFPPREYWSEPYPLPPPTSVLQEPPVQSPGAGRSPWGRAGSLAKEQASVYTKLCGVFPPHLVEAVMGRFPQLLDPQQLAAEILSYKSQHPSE
From the text: The full-length sequence of human Regnase-1 (UniProt ID: Q5D1E8) was used to prepare a construct having a FLAG tag on the N-terminal side and a recognition sequence for biotin ligase BirA on the C-terminal side (FL_Reg1) as a target protein. The above-mentioned Regnase-1 was expressed in mammalian Expi293 cells, purified with FLAG M2 agarose, and isolated by gel filtration chromatography. When biotinylation was required, methods from nonpatent documents (BMC biotechnology, 2008,8,41; and Protein Science, 1999,8,921-929) were used. […]
(§1) Using Kinase assay buffer III (manufactured by SignalChem) supplemented with 2 mM DTT, 100 μM sodium vanadate, and 2 mM manganese chloride, kinase (IKKβ (manufactured by SignalChem) or TBK1 (manufactured by SignalChem)) and Regnase-1 were reacted in the presence of 10 μM ATP at room temperature for 2 hours to perform a phosphorylation reaction.
(§2) Phosphorylated Regnase-1 was detected by the AlphaScreen system. After each of the above-mentioned phosphorylated Regnase-1 antibodies was added and reacted at room temperature for one hour, anti-FLAG AlphaLISA Acceptor Beads (manufactured by PerkinElmer) and Protein A AlphaScreen Donor Beads (manufactured by PerkinElmer) were added, and EnVision (manufactured by PerkinElmer) was used to measure the excited luminescence. As a result, phosphorylated Regnase-1 produced by the phosphorylation reaction by kinase was specifically detected, and signals were confirmed to be enhanced in a manner dependent on Regnase-1 and kinase concentrations (FIG. 24).
(§3) After mixing 2 nM of the above-mentioned Regnase-1 and the compound, phosphorylated Regnase-1 produced by the phosphorylation reaction was detected by the AlphaScreen system. As the results, the inhibition rate was calculated from the signals obtained when adding the compound at each concentration, by defining the signal obtained with Regnase-1 alone to be 100% inhibition rate, and the signal obtained when the same amount of solvent (DMSO) is added in place of the compound as 0% inhibition rate. The 50% inhibition concentration (μM) was calculated from the obtained dose response curve (Table 11).

[2] = target: T2, ΔCTD_Reg1 (amino acids 1 to 546 of human Regnase-1) phosphorylation by IKKβ (Homo sapiens, UniProt Q5D1E8); assay: Regnase-1 phosphorylation inhibition by compounds (AlphaScreen), IKKβ, CTD-deficient Regnase-1; details: Table 14; phosphorylation by IKKβ; read-out: Phosphorylation inhibition ΔCTD_Reg1, 50% inhibition concentration (IKKβ)
T2 construct: made in house; host or cells: Expi293 cells
T2 sequence (Q5D1E8 1-546): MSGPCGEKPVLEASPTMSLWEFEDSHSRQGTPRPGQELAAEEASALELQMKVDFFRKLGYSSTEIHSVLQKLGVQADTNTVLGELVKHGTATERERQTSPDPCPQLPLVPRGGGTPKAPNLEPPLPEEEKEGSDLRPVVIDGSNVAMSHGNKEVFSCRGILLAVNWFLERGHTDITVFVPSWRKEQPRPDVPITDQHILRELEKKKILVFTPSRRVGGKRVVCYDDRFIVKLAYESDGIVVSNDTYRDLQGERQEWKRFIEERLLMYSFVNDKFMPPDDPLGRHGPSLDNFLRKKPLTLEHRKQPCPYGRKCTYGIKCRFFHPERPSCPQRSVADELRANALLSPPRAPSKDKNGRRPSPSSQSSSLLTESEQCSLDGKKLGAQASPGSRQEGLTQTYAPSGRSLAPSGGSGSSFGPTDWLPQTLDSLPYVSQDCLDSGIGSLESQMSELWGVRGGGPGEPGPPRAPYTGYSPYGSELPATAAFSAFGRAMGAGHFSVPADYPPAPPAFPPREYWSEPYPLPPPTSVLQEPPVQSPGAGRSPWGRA
Description: (§4) Among the full-length human Regnase-1 sequence, the 1st to 546th amino acid sequence was prepared and made into a construct having a FLAG tag on the N-terminal side and a biotin ligase BirA recognition sequence on the C-terminal side (herein, a Regnase-1 lacking the C-terminal domain of Regnase-1 (amino acids 547 to 599 in the case of SEQ ID NO: 2) is referred to as “ΔCTD_Reg1”. “ΔCTD_Reg1” is different from “Regnase-1ΔCTD”, which is a C-terminal domain deletion variant resulting from a frameshift mutation caused by a 1 bp deletion at codon 517, as prepared in Example 13). In addition, the sequence from amino acids 301 to 599 of the full-length human Regnase-1 sequence was designated as C-terminal Regnase-1, and a construct having a FLAG tag on the N-terminal side and a recognition sequence for biotin ligase BirA on the C-terminal side was prepared (Reg1_301-599). The above-mentioned Regnase-1 was expressed in mammalian Expi293 cells, purified with FLAG M2 agarose, and isolated by gel filtration chromatography. When biotinylation was required, methods of nonpatent documents (BMC biotechnology, 2008,8,41; and Protein Science, 1999,8,921-929) were used.
as §1, §2, §3

[3] = target: T3, ΔCTD_Reg1 (amino acids 1 to 546 of human Regnase-1) phosphorylation by TBK1 (Homo sapiens, UniProt Q5D1E8); assay: Regnase-1 phosphorylation inhibition by compounds (AlphaScreen), TBK1, CTD-deficient Regnase-1; details: Table 13; phosphorylation by TBK1; read-out: Phosphorylation inhibition ΔCTD_Reg1, 50% inhibition concentration (TBK1)
T3 construct: made in house; host or cells: Expi293 cells
T3 sequence (Q5D1E8 1-546): T2 sequence (Q5D1E8 1-546)
From the text: The full-length sequence of human Regnase-1 (UniProt ID: Q5D1E8) was used to prepare a construct having a FLAG tag on the N-terminal side and a recognition sequence for biotin ligase BirA on the C-terminal side (FL_Reg1) as a target protein. The above-mentioned Regnase-1 was expressed in mammalian Expi293 cells, purified with FLAG M2 agarose, and isolated by gel filtration chromatography. When biotinylation was required, methods from nonpatent documents (BMC biotechnology, 2008,8,41; and Protein Science, 1999,8,921-929) were used.
as §4, §1, §2, §3

Row | Structure (SMILES) | pIC50 [1] | pIC50 [2] | pIC50 [3]
1 | CC[C@H](C)[C@@H]1NC(=O)[C@H](CCCNC(=N)N)NC(=O)[C@H](Cc2ccc(O)cc2)NC(=O)[C@H](Cc2c[nH]c3ccccc23)NC(=O)[C@H](CO)NC(=O)[C@H](CC(N)=O)NC(=O)[C@H](C)N(C)C(=O)C[C@@H](C(=O)N2CCCC2)NC(=O)[C@H](CC(C)C)NC(=O)CNC(=O)[C@H](Cc2c[nH]c3ccccc23)NC1=O [PP22] (HELM PEPTIDE1{[meA].N.S.W.Y.R.I.W.G.L.D.[C1CCN([*:1])C1]}$PEPTIDE1,PEPTIDE1,1:R1-11:R3$$$V2.0) | 4.61 |  | 
2 | CC[C@H](C)[C@@H]1NC(=O)[C@H](Cc2c[nH]c3ccccc23)NC(=O)[C@H](CCCNC(=N)N)NC(=O)[C@H](Cc2ccccc2)NC(=O)[C@H](CCC(N)=O)NC(=O)[C@H](C)NC(=O)[C@H](Cc2ccccc2)NC(=O)[C@H](CCCCN)NC(=O)[C@H](C)N(C)C(=O)C[C@@H](C(=O)N2CCCC2)NC(=O)[C@@H]2CCCN2C(=O)[C@H](Cc2ccc(O)cc2)NC1=O [PP11] (HELM PEPTIDE1{[meA].K.F.A.Q.F.R.W.I.Y.P.D.[C1CCN([*:1])C1]}$PEPTIDE1,PEPTIDE1,1:R1-12:R3$$$V2.0) | 4.54 | < 4.21 | 
3 | CC[C@H](C)[C@@H]1NC(=O)[C@H](CC(N)=O)NC(=O)[C@H](Cc2ccc(O)cc2)NC(=O)[C@H](Cc2c[nH]c3ccccc23)NC(=O)[C@H](CO)NC(=O)[C@H](CC(N)=O)NC(=O)[C@H](CO)NC(=O)[C@H](Cc2ccccc2)NC(=O)[C@H](CC(N)=O)NC(=O)[C@H](C)N(C)C(=O)C[C@@H](C(=O)N2CCCC2)NC(=O)[C@H](Cc2c[nH]c3ccccc23)NC1=O [PP16] (HELM PEPTIDE1{[meA].N.F.S.N.S.W.Y.N.I.W.D.[C1CCN([*:1])C1]}$PEPTIDE1,PEPTIDE1,1:R1-12:R3$$$V2.0) | 4.28 |  | 
4 | CC[C@H](C)[C@@H]1NC(=O)[C@H](CCCCN)NC(=O)[C@H](Cc2ccc(O)cc2)NC(=O)[C@H](Cc2c[nH]c3ccccc23)NC(=O)[C@H](CO)NC(=O)[C@H](CO)NC(=O)[C@H]([C@@H](C)O)NC(=O)[C@@H]2CCCN2C(=O)[C@@H](C)N(C)C(=O)C[C@@H](C(=O)N2CCCC2)NC(=O)[C@H](Cc2c[nH]c3ccccc23)NC1=O [PP23] (HELM PEPTIDE1{[C[C@H](C(=O)[*:2])N(C)[*:1]].P.T.S.S.W.Y.K.I.W.D.[C1CCN([*:1])C1]}$PEPTIDE1,PEPTIDE1,1:R1-11:R3$$$V2.0) | 4.73 | < 4.21 | 

These reach a higher pIC50 [1]. Values come first.

Row | pIC50 [1] | pIC50 [2] | pIC50 [3] | Structure (SMILES)
5 | 4.87 |  |  | CC[C@H](C)[C@@H]1NC(=O)[C@H](CCCCN)NC(=O)[C@H](Cc2ccc(O)cc2)NC(=O)[C@H](Cc2c[nH]c3ccccc23)NC(=O)[C@H](CO)NC(=O)[C@H](CC(N)=O)NC(=O)[C@H](C)N(C)C(=O)C[C@@H](C(=O)N2CCCC2)NC(=O)[C@H](CC(C)C)NC(=O)CNC(=O)[C@H](Cc2c[nH]c3ccccc23)NC1=O [PP21] (HELM PEPTIDE1{[meA].N.S.W.Y.K.I.W.G.L.D.[C1CCN([*:1])C1]}$PEPTIDE1,PEPTIDE1,1:R1-11:R3$$$V2.0)
6 | 4.90 | 4.57 |  | CC[C@H](C)[C@@H]1NC(=O)[C@H](Cc2c[nH]c3ccccc23)NC(=O)[C@H](CCC(N)=O)NC(=O)[C@H](Cc2ccc(O)cc2)NC(=O)[C@H](C(C)C)NC(=O)[C@H](C)NC(=O)[C@H](Cc2ccc(O)cc2)NC(=O)[C@H](CCCNC(=N)N)NC(=O)[C@H](C)N(C)C(=O)C[C@@H](C(=O)N2CCCC2)NC(=O)[C@@H]2CCCN2C(=O)[C@H](Cc2ccc(O)cc2)NC1=O [PP12] (HELM PEPTIDE1{[meA].R.Y.A.V.Y.Q.W.I.Y.P.D.[C1CCN([*:1])C1]}$PEPTIDE1,PEPTIDE1,1:R1-12:R3$$$V2.0)
7 | 5.07 | 4.51 |  | CC[C@H](C)[C@@H]1NC(=O)[C@H](CC(N)=O)NC(=O)[C@H]([C@@H](C)CC)NC(=O)[C@H](Cc2ccc(O)cc2)NC(=O)[C@H](Cc2c[nH]c3ccccc23)NC(=O)[C@H](CO)NC(=O)[C@H](CC(N)=O)NC(=O)[C@H](C)N(C)C(=O)C[C@@H](C(=O)N2CCCC2)NC(=O)[C@H](Cc2c[nH]cn2)NC(=O)CNC(=O)[C@H](Cc2c[nH]c3ccccc23)NC1=O [PP15] (HELM PEPTIDE1{[meA].N.S.W.Y.I.N.I.W.G.H.D.[C1CCN([*:1])C1]}$PEPTIDE1,PEPTIDE1,1:R1-12:R3$$$V2.0)
8 | 5.43 |  | 5.34 | CC[C@H](C)[C@@H]1NC(=O)[C@H](CCCCN)NC(=O)[C@H](Cc2ccc(O)cc2)NC(=O)[C@H](Cc2ccccc2)NC(=O)[C@H](C(C)C)NC(=O)[C@H](C)N(C)C(=O)C[C@@H](C(=O)N2CCCC2)NC(=O)[C@H](Cc2c[nH]c3ccccc23)NC(=O)[C@H](CC(N)=O)NC(=O)[C@H](Cc2ccc(O)cc2)NC(=O)[C@H](Cc2c[nH]c3ccccc23)NC1=O [PP19] (HELM PEPTIDE1{[meA].V.F.Y.K.I.W.Y.N.W.D.[C1CCN([*:1])C1]}$PEPTIDE1,PEPTIDE1,1:R1-11:R3$$$V2.0)
9 | 6.70 |  | 6.70 | CC[C@H](C)[C@@H]1NC(=O)[C@H](CO)NC(=O)[C@H](CCCNC(=N)N)NC(=O)[C@H](Cc2ccc(O)cc2)NC(=O)[C@H](Cc2ccc(O)cc2)NC(=O)[C@H](Cc2c[nH]c3ccccc23)NC(=O)[C@H](CO)NC(=O)[C@H](CCC(N)=O)NC(=O)[C@H](Cc2ccc(O)cc2)NC(=O)[C@H](CC(N)=O)NC(=O)[C@H](C)N(C)C(=O)C[C@@H](C(=O)N2CCCC2)NC(=O)[C@H](Cc2c[nH]c3ccccc23)NC1=O [PP10] (HELM PEPTIDE1{[meA].N.Y.Q.S.W.Y.Y.R.S.I.W.D.[C1CCN([*:1])C1]}$PEPTIDE1,PEPTIDE1,1:R1-13:R3$$$V2.0)
